Test results published in patent US20220062371A1, “LIGAND-DRUG-CONJUGATES AS SUBSTRATES FOR SELECTIVE CLEAVAGE BY THE EXOPEPTIDASE ACTIVITY OF CATHEPSIN B” (DEBIOPHARM RESEARCH & MANUFACTURING S.A., priority 2017, published 2022).
Values joined by “and” are separate entries in the source; they are usually repeats but may differ in a detail not shown here. Identical values can stand only once. Like-named read-outs stand apart in the source and are kept apart here. Non-standard residues stand in square brackets, D forms with d. Residues, ends and D or L forms follow the SMILES beside them. *: point of attachment. Dolaproine = CO[C@@H]([C@@H]1CCCN1)[C@@H](C)C(=O)O; Dil = CC[C@H](C)[C@H](NC)[C@@H](CC(=O)O)OC; NMe2Val = CC(C)[C@@H](C(=O)*)N(C)C

Key:
Test in all cases: Cytotoxic activity, Alamar Blue assay
Assay type in all cases: cell-based
[1] = test system: SK-BR-3 (ErbB2-expressing) cells
Protocol: (§1) Log phase cultures of cell lines SK-OV-3 (ErbB2-expressing), SK-BR-3 (ErbB2-expressing), BT-474 (ErbB2-expressing) and MDA-MB-231 (ErbB2 negative) were collected and cells plated at seeding densities ranging from 1,500 to 12,000 cells/well in 96-well microtiter plates according to pre-determined conditions.
(§2) Assessment of cellular growth was done using Alamar Blue (available from Thermo Fisher Scientific) dye reduction assay. Alamar Blue was added to cells to constitute 10% culture volume. Cells were incubated for 4 to 6 hours, and dye reduction was measured by fluorescence on an EnSpire plate reader (Perkin Elmer). Background corrected fluorescence measurements were transformed in % scale by considering vehicle value as 100% activity (relative measurements). Next, relative measurements were analyzed using GraphPad Prism software to derive relative IC50. All experiments were done twice with 3 replicates per concentration. Error bars: SEM (n=3). Cytotoxicity of AF and AF-Arg on ErbB2-expressing SK-OV-3 and SK-BR-3 cells after 72 and 120 h of treatment. SK-OV-3 and SK-BR-3 cells were seeded the day before treatment in complete culture medium. After overnight resting, cells were treated with decreasing concentrations of test compounds in complete culture medium (AF: 10 μM-1 pM; AF-Arg: 10 μM-1 pM, log-dilution).
(§3) SK-OV-3, SK-BR-3 and MDA-MB-231 cells were seeded the day before treatment in complete culture medium.

[2] = test system: SK-OV-3 (ErbB2-expressing) cells
Protocol: as §1, §2, §3

[3] = test system: MDA-MB-231 (ErbB2 negative) cells; conditions: read-out: Relative IC50 at 96 h (day 4)
Protocol: as §1, §2, §3
BT-474 and MDA-MB-231 cells were seeded the day before treatment in complete culture medium.

[4] = test system: BT-474 (ErbB2-expressing) cells; conditions: ADC3 study, read-out: Relative IC50 at 96 h (day 4)
Protocol: as §1
as §2, with “log-dilution). […]” for “log-dilution).”

[5] = test system: SK-OV-3 (ErbB2-expressing) cells; conditions: ADC1 study, read-out: Relative IC50 at 96 h (day 4)
[6] = test system: SK-BR-3 (ErbB2-expressing) cells; conditions: ADC1 study, read-out: Relative IC50 at 96 h (day 4)
[7] = SK-BR-3, run 1, 72 h, read-out: Relative IC50 at 72 h (day 3)
[8] = SK-BR-3, run 1, 120 h, read-out: Relative IC50 at 120 h (day 5)
[9] = SK-BR-3, run 2, 72 h, read-out: Relative IC50 at 72 h (day 3)
[10] = SK-BR-3, run 2, 120 h, read-out: Relative IC50 at 120 h (day 5)
[11] = SK-OV-3, run 1, 72 h, read-out: Relative IC50 at 72 h (day 3)
[12] = SK-OV-3, run 1, 120 h, read-out: Relative IC50 at 120 h (day 5)
[13] = SK-OV-3, run 2, 72 h, read-out: Relative IC50 at 72 h (day 3)
[14] = SK-OV-3, run 2, 120 h, read-out: Relative IC50 at 120 h (day 5)

Molecule	IC50 [1, 7] [nM]	IC50 [1, 8] [nM]	IC50 [1, 9] [nM]	IC50 [1, 10] [nM]	IC50 [2, 11] [nM]	IC50 [2, 12]	IC50 [2, 13] [nM]	IC50 [2, 14] [nM]	IC50 ([3]; MDA-MB-231, run 1, 96 h, ADC3 study) [nM]	IC50 ([3]; MDA-MB-231, run 2, 96 h, ADC3 study) [nM]	IC50 ([4]; BT-474, run 1, 96 h) [nM]	IC50 ([4]; BT-474, run 2, 96 h) [nM]	retained cytotoxic activity relative to the native drug (AF) ([1]; SK-BR-3 cells, 120 h)	retained cytotoxic activity relative to the native drug (AF) ([2]; SK-OV-3 cells, 120 h)	IC50 ([3]; MDA-MB-231, run 1, 96 h, ADC1 study) [nM]	IC50 ([3]; MDA-MB-231, run 2, 96 h, ADC1 study) [nM]	IC50 ([5]; SK-OV-3, run 1, 96 h) [nM]	IC50 ([5]; SK-OV-3, run 2, 96 h) [nM]	IC50 ([6]; SK-BR-3, run 1, 96 h) [nM]	IC50 ([6]; SK-BR-3, run 2, 96 h) [nM]
CC[C@H](C)[C@@H]([C@@H](CC(=O)N1CCC[C@H]1[C@H](OC)[C@@H](C)C(=O)N[C@@H](Cc1ccccc1)C(=O)O)OC)N(C)C(=O)[C@@H](NC(=O)[C@H](C(C)C)N(C)C)C(C)C [AF, Auristatin F, reference compound] (NMe2Val-V[Dil][Dolaproine]F-OH)	37.4	18.8	53.7	21.8	82.8	100 nM and ~100 nM	154	145												
COc1cc2cc(c1Cl)N(C)C(=O)C[C@H](OC(=O)[C@H](C)N(C)C(=O)CCS)[C@]1(C)O[C@H]1[C@H](C)[C@@H]1C[C@@](O)(NC(=O)O1)[C@H](OC)/C=C/C=C(\C)C2 [DM1, N2′-deacetyl-N2′-(3-mercapto-1-oxopropyl)-maytansine, reference compound]									44.2	57	2.8	3								
AF-Arg	~98	20.9	~111	24.9	180	147 nM	240	205					greater than 85%	about 70%	15.2	5.84	82.6	244	~92.1	128
